The source of these data is US20160120805A1, “EXOSOMES FOR OROFACIAL DIAGNOSTICS AND THERAPEUTICS” (THE TRUSTEES OF COLUMBIA UNIVERSITY IN THE CITY OF NEW YORK, priority 2013, published 2016).

The subject of experiment [1] is reconstituted dental epithelium and mesenchyme tissues. Nature of the experiment: Organ culture of reconstituted E16.5 dental epithelium and mesenchyme tissue, dentin formation. Conditions: 10 uM, control formed dentin at day 10. The format is cell-based. The method, then:
E16.5 epithelium and mesenchyme tissue (see e.g., FIG. 9A) were reconstituted (see e.g., FIG. 9B) under dissection microscope. The reconstituted organ were cultured for 12 days (see e.g., FIG. 9C-D).

The subject of a further experiment is exosome secretion. Nature of the experiment: Exosome secretion measured by protein concentration. The format is cell-based.

With `O=C(/C=C/c1ccc(/C=C/C(=O)Nc2ccc(C3=NCCN3)cc2)cc1)Nc1ccc(C2=NCCN2)cc1` [GW4869], the dentin formation entry in experiment [1] is on record as “No dentin formed”. Besides, the exosome secretion result with exosome secretion (1.0 uM) and in the experiment with exosome secretion (10.0 uM) was “decreased” throughout.
